Earlier results on two compounds are cited in US11491120B2, “Pharmacological prophylactics against stress-induced affective disorders in females” (The Trustees of Columbia University in the City of New York, priority 2017, dated 2022).

The conditions of data set [1]: following ketamine infusion; cited from earlier work.
Data set [2] has as its system NMDAR. The settings on record: cited from earlier work.

Consider `N[C@@]1(c2ccccc2Cl)CCC[C@@H](O)C1=O` [(2R,6R;2S,6S)-HNK, (2R,6R;2S,6S)-hydroxynorketamine], for which the “Share of the original ketamine dose found as metabolite in the brain” value in data set [1] is listed as 15%. Regarding `CN[C@]1(c2ccccc2Cl)CCCCC1=O` [(S)-ketamine], the “Antagonism of the NMDAR, relative strength” value in data set [2] is recorded as “four-fold stronger antagonist”.
